Experimental data reported in patent publication US20220324835A1 (Nurix Therapeutics, Inc., priority 2018, published 2022).

Assays:
[1] = molecular target: T1, Cbl-b (Homo sapiens, UniProt Q13191); experiment: Cbl-b inhibition assay (Cbl-b activity assay, FRET, Biological Example 1; 100 mM NaCl, 60 nM Src kinase); assay type: biochemical; conditions: upper bound stated in text lists; read-out: IC50 values in the Cbl-b inhibition assay of Biological Example 1
In short: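 Inhibition is read as loss of FRET signal. The signal arises when Src-phosphorylated, N-terminal biotinylated Avi-Cbl-b (captured by streptavidin-terbium) binds UbcH5B carrying covalently linked Bodipy-Fluorescein-tagged ubiquitin.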

[2] = molecular target: T1, Cbl-b; experiment: Cbl-b activity assay (Cbl-b inhibition assay), TR-FRET of Cbl-b interaction with UbcH5B-Ub; assay type: biochemical; conditions: assay buffer with 100 mM NaCl, 60 nM Src kinase; read-out: Cbl-b activity IC50
In short: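 Compound-treated Cbl-b was incubated 1.5 h with Src kinase (60 nM final; 30 nM for asterisked values, which also used 50 mM instead of 100 mM NaCl), 1 mM ATP and 5 mM MgCl2. Binding to fluorescent Ub-loaded UbcH5B (C85K mutant) was then read by TR-FRET after 1 h more.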

[3] = system: T-cell; experiment: CD25 cell surface staining on T-cells stimulated with anti-CD3 antibody alone (Biological Example 2); assay type: cell-based, human; conditions: T-cell, fold change over baseline, primary human total T-cells, read-out: CD25 staining Anti-CD3 stimulation; for fold induction at 1 µM: 1 μM Cbl-b inhibitor; for fold induction at 8 µM: 8 μM Cbl-b inhibitor
[4] = system: T-cell; experiment: CD25 cell surface staining on T-cells co-stimulated with anti-CD3 and anti-CD28 antibody (Biological Example 2); assay type: cell-based, human; conditions: Homo sapiens, T-cell, fold change over baseline, primary human total T-cells, read-out: CD25 staining Anti-CD3/Anti-CD28 stimulation; for fold induction at 0.3 µM: 0.3 μM Cbl-b inhibitor; for fold induction at 1 µM: 1 μM Cbl-b inhibitor; for fold induction at 4 µM: 4 μM Cbl-b inhibitor
In short: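 Values are fold-change over baseline: readings (IL-2 release, CD25 staining) from inhibitor-treated T-cells divided against untreated cells […]. No detailed procedure stated.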

[5] = system: T-cell; experiment: IL-2 secretion from T-cells stimulated with anti-CD3 antibody alone (Biological Example 2); assay type: cell-based, human; conditions: T-cell, fold change over baseline, primary human total T-cells, read-out: IL-2 secretion Anti-CD3 stimulation; for fold induction at 1 µM: 1 μM Cbl-b inhibitor; for fold induction at 8 µM: 8 μM Cbl-b inhibitor

T1 sequence (Q13191 36-427): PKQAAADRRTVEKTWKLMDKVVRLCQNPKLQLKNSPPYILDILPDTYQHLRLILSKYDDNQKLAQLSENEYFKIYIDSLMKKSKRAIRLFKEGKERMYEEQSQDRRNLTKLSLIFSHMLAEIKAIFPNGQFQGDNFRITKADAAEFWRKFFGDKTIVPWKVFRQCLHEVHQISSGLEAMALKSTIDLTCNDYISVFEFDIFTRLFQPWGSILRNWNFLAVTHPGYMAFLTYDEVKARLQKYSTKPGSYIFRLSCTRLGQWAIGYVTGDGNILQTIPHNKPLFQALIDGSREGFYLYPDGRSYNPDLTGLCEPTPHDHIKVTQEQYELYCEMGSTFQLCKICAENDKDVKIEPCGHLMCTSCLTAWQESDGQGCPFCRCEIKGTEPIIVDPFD

| SMILES | IC50 [1] [nM] | IC50 [2] [nM] | fold induction at 1 µM [3] | fold induction at 8 µM [3] | fold induction at 0.3 µM [4] | fold induction at 1 µM [4] | fold induction at 4 µM [4] | fold induction at 1 µM [5] | fold induction at 8 µM [5] |
| --- | --- | --- | --- | --- | --- | --- | --- | --- | --- |
| C[C@H](Cc1nnc[nH]1)c1cccc(N2Cc3c(cccc3C(F)(F)F)C2=O)c1 [Compound 262, (R)-2-(3-(1-(4H-1,2,4-triazol-3-yl)propan-2-yl)phenyl)-4-(trifluoromethyl)isoindolin-1-one] | ≤ 500 | 301 to 1000 | < 0.6 | < 0.6 | 1.01 to 1.3 | 1.31 to 1.5 | 1.31 to 1.5 | < 0.05 | < 0.05 |
| C[C@H](Cc1nncn1C1CC1)c1cccc(N2Cc3c(cccc3C(F)(F)F)C2=O)c1 [Compound 265, (R)-2-(3-(1-(4-cyclopropyl-4H-1,2,4-triazol-3-yl)propan-2-yl)phenyl)-4-(trifluoromethyl)isoindolin-1-one] | ≤ 1000 | 301 to 1000 | 0.601 to 0.8 | 0.801 to 1 | 1.01 to 1.3 | 1.01 to 1.3 | 1.01 to 1.3 | < 0.05 | < 0.05 |
| Cc1[nH]cnc1CC(C)c1cccc(N2Cc3c(cccc3C(F)(F)F)C2=O)c1 (stereo not drawn) [Compound 272, 2-[3-[1-(5-methyl-1H-imidazol-4-yl)propan-2-yl]phenyl]-4-(trifluoromethyl)isoindolin-1-one] | ≤ 500 | 301 to 1000 | < 0.6 | < 0.6 | < 1 | < 1 | 1.01 to 1.3 | 0.101 to 0.15 | 0.101 to 0.15 |
| C[C@H](Cc1nncn1C)c1cc(F)cc(N2Cc3c(cccc3C(F)(F)F)C2=O)c1 [Compound 281a, 2-[3-Fluoro-5-[(1R)-1-methyl-2-(4-methyl-1,2,4-triazol-3-yl)ethyl]phenyl]-4-(trifluoromethyl)isoindolin-1-one] | ≤ 500 | 100 to 300 | 0.801 to 1 | > 1 | 1.01 to 1.3 | 1.01 to 1.3 | 1.31 to 1.5 | < 0.05 | 0.051 to 0.1 |
| Cn1cnnc1[C@@H]1C[C@@H]1c1cccc(N2Cc3c(cccc3C(F)(F)F)C2=O)c1 [Compound 282, 2-(3-((1S,2R)-2-(4-methyl-4H-1,2,4-triazol-3-yl)cyclopropyl)phenyl)-4-(trifluoromethyl)isoindolin-1-one] | ≤ 500 | 301 to 1000 | 0.601 to 0.8 | > 1 | > 1.76 | > 1.76 | > 1.76 | < 0.05 | < 0.05 |
| Cn1cnnc1[C@@H]1CC[C@@H]1c1cccc(N2Cc3c(cccc3C(F)(F)F)C2=O)c1 [Compound 283b, 2-(3-((1S,2R)-2-(4-methyl-4H-1,2,4-triazol-3-yl)cyclobutyl)phenyl)-4-(trifluoromethyl)isoindolin-1-one] | ≤ 500 | 301 to 1000 | 0.601 to 0.8 | 0.801 to 1 | 1.01 to 1.3 | 1.01 to 1.3 | 1.01 to 1.3 | 0.101 to 0.15 | > 0.201 |
| Cc1ccc(C(=O)Nc2cccc(C(C)C(F)(F)c3nncn3C)c2)nc1C1CC1 (stereo not drawn) [Compound 286, 6-cyclopropyl-N-(3-(1,1-difluoro-1-(4-methyl-4H-1,2,4-triazol-3-yl)propan-2-yl)phenyl)-5-methylpicolinamide] | ≤ 500 | 100 to 300 | 0.801 to 1 | > 1 | < 1 | < 1 | 1.01 to 1.3 | 0.051 to 0.1 | 0.101 to 0.15 |
| Cn1cnnc1C(F)(F)[C@](C)(F)c1cccc(N2Cc3c(cccc3C(F)(F)F)C2=O)c1 [Compound 296a, (R)-2-(3-(1,1,2-trifluoro-1-(4-methyl-4H-1,2,4-triazol-3-yl)propan-2-yl)phenyl)-4-(trifluoromethyl)isoindolin-1-one] | ≤ 500 | 100 to 300 | 0.601 to 0.8 | > 1 | 1.01 to 1.3 | 1.01 to 1.3 | 1.01 to 1.3 | 0.151 to 0.2 | > 0.201 |
| Cn1cnnc1C[C@](C)(F)c1cccc(N2Cc3c(cccc3C(F)(F)F)C2=O)c1 [Compound 298b, (S)-2-(3-(2-fluoro-1-(4-methyl-4H-1,2,4-triazol-3-yl)propan-2-yl)phenyl)-4-(trifluoromethyl)isoindolin-1-one] | ≤ 500 | 100 to 300 | 0.601 to 0.8 | 0.801 to 1 | 1.01 to 1.3 | < 1 | 1.01 to 1.3 | 0.051 to 0.1 | 0.101 to 0.15 |
| C[C@H](Cc1nncn1C)c1ccnc(NC(=O)c2cccc(C(F)(F)F)n2)c1 [Compound 302, (R)-N-(4-(1-(4-methyl-4H-1,2,4-triazol-3-yl)propan-2-yl)pyridin-2-yl)-6-(trifluoromethyl)picolinamide] | ≤ 1000 | 301 to 1000 | < 0.6 | 0.801 to 1 | 1.01 to 1.3 | 1.01 to 1.3 | 1.01 to 1.3 | < 0.05 | 0.051 to 0.1 |
| C[C@H](Cc1nncn1C)c1ccnc(N2Cc3c(cccc3C(F)(F)F)C2=O)c1 [Compound 304b, (R)-2-(4-(1-(4-methyl-4H-1,2,4-triazol-3-yl)propan-2-yl)pyridin-2-yl)-4-(trifluoromethyl)isoindolin-1-one] | ≤ 500 | 301 to 1000 | < 0.6 | < 0.6 | 1.01 to 1.3 | 1.01 to 1.3 | 1.31 to 1.5 | < 0.05 | < 0.05 |
| C[C@H](Cc1nncn1C)c1cccc(NC(=O)c2nc(C(F)(F)F)c[nH]2)c1 [Compound 326, (R)-N-(3-(1-(4-methyl-4H-1,2,4-triazol-3-yl)propan-2-yl)phenyl)-4-(trifluoromethyl)-1H-imidazole-2-carboxamide] | ≤ 300 | 100 to 300 | 0.801 to 1 | > 1 | 1.01 to 1.3 | 1.01 to 1.3 | 1.01 to 1.3 | 0.051 to 0.1 | > 0.201 |
| Cn1cnnc1[C@@H]1C[C@@H]1c1cccc(NC(=O)c2nc3c(C(F)(F)F)cccc3[nH]2)c1 [Compound 332, N-(3-((1S,2R)-2-(4-methyl-4H-1,2,4-triazol-3-yl)cyclopropyl)phenyl)-4-(trifluoromethyl)-1H-benzo[d]imidazole-2-carboxamide] | ≤ 300 | 100 to 300 | 0.601 to 0.8 | 0.801 to 1 | 1.01 to 1.3 | 1.01 to 1.3 | 1.01 to 1.3 | 0.101 to 0.15 | > 0.201 |
| Cc1cc(C(=O)Nc2cccc([C@@](C)(F)C(F)(F)c3nncn3C)c2)nc(C2CC2)n1 [Compound 344, (R)-2-Cyclopropyl-6-methyl-N-(3-(1,1,2-trifluoro-1-(4-methyl-4H-1,2,4-triazol-3-yl)propan-2-yl)phenyl)pyrimidine-4-carboxamide] | ≤ 300 | 100 to 300 | 0.801 to 1 | > 1 | 1.01 to 1.3 | 1.31 to 1.5 | 1.31 to 1.5 | 0.101 to 0.15 | > 0.201 |
| C[C@H](Cc1nncn1C)c1cc(NCCO)nc(N2Cc3c(cccc3C(F)(F)F)C2=O)c1 [Compound 357, (R)-2-(6-(2-hydroxyethylamino)-4-(1-(4-methyl-4H-1,2,4-triazol-3-yl)propan-2-yl)pyridin-2-yl)-4-(trifluoromethyl)isoindolin-1-one] | ≤ 300 | 100 to 300 | 0.601 to 0.8 | > 1 | 1.01 to 1.3 | 1.01 to 1.3 | 1.01 to 1.3 | 0.051 to 0.1 | 0.151 to 0.2 |
